Measured values as given in patent US9169260B2 (MERCK SHARP & DOHME CORP., priority 2011, dated 2015).

biological target: GST tagged IRAK-4 (Homo sapiens (Human), UniProt Q9NWZ3); assay: IRAK-4 Kinase Assay (IMAP fluorescence polarization); format: biochemical; details: 100 μM ATP, 30 minutes at 25° C.
How it was run: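 Activity was read by IMAP fluorescence polarization, where phosphopeptide binding to M(III) nanoparticles raises FP. The 30-minute, 25° C reaction used 100 μM ATP, 100 nM RP7030 substrate and 0.5 nM GST-IRAK-4 in pH 7.2 Tris buffer with MgCl2, DTT and Tween 20.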

Sequence of GST tagged IRAK-4 (Q9NWZ3 whole entry): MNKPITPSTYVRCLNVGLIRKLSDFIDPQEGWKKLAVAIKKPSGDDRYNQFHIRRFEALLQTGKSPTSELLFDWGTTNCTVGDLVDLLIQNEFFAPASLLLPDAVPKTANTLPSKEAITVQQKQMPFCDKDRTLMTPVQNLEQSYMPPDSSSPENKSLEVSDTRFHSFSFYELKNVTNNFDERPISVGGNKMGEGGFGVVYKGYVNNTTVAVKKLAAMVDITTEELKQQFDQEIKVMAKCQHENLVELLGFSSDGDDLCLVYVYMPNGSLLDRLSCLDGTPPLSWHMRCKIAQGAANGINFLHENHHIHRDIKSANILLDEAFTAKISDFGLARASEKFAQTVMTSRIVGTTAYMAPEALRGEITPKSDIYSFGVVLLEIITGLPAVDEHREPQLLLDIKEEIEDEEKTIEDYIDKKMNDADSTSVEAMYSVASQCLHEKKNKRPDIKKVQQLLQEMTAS

| Compound | IC50 |
| --- | --- |
| Cc1ccc(-n2nc(C3CCN(Cc4ccccn4)CC3)cc2NC(=O)c2cnn3cccnc23)cc1 [Example 226, N-{1-(4-methylphenyl)-3-[1-(pyridin-2-ylmethyl)piperidin-4-yl]-1H-pyrazol-5-yl}pyrazolo[1,5-a]pyrimidine-3-carboxamide] | < 0.1 µM |
| Cc1ccc(-n2nc(C3CCN(CC4CCOC4)CC3)cc2NC(=O)c2cnn3cccnc23)cc1 (stereo not drawn) [Example 228, N-{1-(4-methylphenyl)-3-[1-(tetrahydrofuran-3-ylmethyl)piperidin-4-yl]-1H-pyrazol-5-yl}pyrazolo[1,5-a]pyrimidine-3-carboxamide] | < 0.1 µM |
| Cc1ccc(-n2nc(C3CCN(Cc4cncs4)CC3)cc2NC(=O)c2cnn3cccnc23)cc1 [Example 229, N-{1-(4-methylphenyl)-3-[1-(1,3-thiazol-5-ylmethyl)piperidin-4-yl]-1H-pyrazol-5-yl}pyrazolo[1,5-a]pyrimidine-3-carboxamide] | < 0.1 µM |
| Cc1ccc(-n2nc(C3CCN(Cc4ccn[nH]4)CC3)cc2NC(=O)c2cnn3cccnc23)cc1 [Example 230, N-{1-(4-methylphenyl)-3-[1-(1H-pyrazol-5-ylmethyl)piperidin-4-yl]-1H-pyrazol-5-yl}pyrazolo[1,5-a]pyrimidine-3-carboxamide] | < 0.1 µM |
| Cc1ccc(-n2nc(C3CCN(Cc4cscn4)CC3)cc2NC(=O)c2cnn3cccnc23)cc1 [Example 231, N-{1-(4-methylphenyl)-3-[1-(1,3-thiazol-4-ylmethyl)piperidin-4-yl]-1H-pyrazol-5-yl}pyrazolo[1,5-a]pyrimidine-3-carboxamide] | < 0.1 µM |
| Cc1ccc(-n2nc(C3CCN(Cc4cn[nH]c4)CC3)cc2NC(=O)c2cnn3cccnc23)cc1 [Example 233, N-{1-(4-methylphenyl)-3-[1-(1H-pyrazol-4-ylmethyl)piperidin-4-yl]-1H-pyrazol-5-yl}pyrazolo[1,5-a]pyrimidine-3-carboxamide] | < 0.1 µM |

same assay, conditions: 100 μM ATP, 30 minutes at 25° C.; μM

| Compound | IC50 |
| --- | --- |
| Cc1ccc(-n2nc(C3CCN(Cc4ccncc4)CC3)cc2NC(=O)c2cnn3cccnc23)cc1 [Example 224, N-(3-(1-(pyridin-4-ylmethyl)piperidin-4-yl)-1-(p-tolyl)-1H-pyrazol-5-yl)pyrazolo[1,5-a]pyrimidine-3-carboxamide] | < 1 µM |
| Cc1ccc(-n2nc(C3CCN(Cc4cccnc4)CC3)cc2NC(=O)c2cnn3cccnc23)cc1 [Example 225, N-{1-(4-methylphenyl)-3-[1-(pyridin-3-ylmethyl)piperidin-4-yl]-1H-pyrazol-5-yl}pyrazolo[1,5-a]pyrimidine-3-carboxamide] | < 1 µM |
| Cc1ccc(-n2nc(C3CCN(Cc4ncco4)CC3)cc2NC(=O)c2cnn3cccnc23)cc1 [Example 232, N-{1-(4-methylphenyl)-3-[1-(1,3-oxazol-2-ylmethyl)piperidin-4-yl]-1H-pyrazol-5-yl}pyrazolo[1,5-a]pyrimidine-3-carboxamide] | < 1 µM |
| Cc1ccc(-n2nc(C3CCN(C4CN(C(=O)NC(C)C)C4)CC3)cc2NC(=O)c2cnn3cccnc23)cc1 [Example 235, N-[3-(1-{1-[(1-methylethyl)carbamoyl]azetidin-3-yl}piperidin-4-yl)-1-(4-methylphenyl)-1H-pyrazol-5-yl]pyrazolo[1,5-a]pyrimidine-3-carboxamide] | < 1 µM |
| Cc1ccc(-n2nc(C3CCN(C4CN(C(=O)NC(C)(C)C)C4)CC3)cc2NC(=O)c2cnn3cccnc23)cc1 [Example 236, N-[3-{1-[1-(tert-butylcarbamoyl)azetidin-3-yl]piperidin-4-yl]-1-(4-methylphenyl)-1H-pyrazol-5-yl}pyrazolo[1,5-a]pyrimidine-3-carboxamide] | < 1 µM |
| CCNC(=O)N1CC(N2CCC(c3cc(NC(=O)c4cnn5cccnc45)n(-c4ccc(C)cc4)n3)CC2)C1 [Example 237, N-[3-{1-[1-(ethylcarbamoyl)azetidin-3-yl]piperidin-4-yl}-1-(4-methylphenyl)-1H-pyrazol-5-yl]pyrazolo[1,5-a]pyrimidine-3-carboxamide] | < 1 µM |
| COC(=O)N1CC(N2CCC(c3cc(NC(=O)c4cnn5cccnc45)n(-c4ccc(C)cc4)n3)CC2)C1 [Example 238, methyl 3-(4-{1′-(4-methylphenyl)-5-[(pyrazolo[1,5-a]pyrimidin-3-ylcarbonyl)amino]-1H-pyrazol-3-yl}piperidin-1-yl)azetidine-1-carboxylate] | < 1 µM |

Now from value to compound:

| IC50 | Compound |
| --- | --- |
| < 1 µM | CCOC(=O)N1CC(N2CCC(c3cc(NC(=O)c4cnn5cccnc45)n(-c4ccc(C)cc4)n3)CC2)C1 [Example 239, ethyl 3-(4-{1-(4-methylphenyl)-5-[(pyrazolo[1,5-a]pyrimidin-3-ylcarbonyl)amino]-1H-pyrazol-3-yl}piperidin-1-yl)azetidine-1-carboxylate] |
| < 1 µM | Cc1ccc(-n2nc(C3CCN(C4CN(C(=O)OC(C)C)C4)CC3)cc2NC(=O)c2cnn3cccnc23)cc1 [Example 240, 1-methylethyl 3-(4-{1-(4-methylphenyl)-5-[(pyrazolo[1,5-a]pyrimidin-3-ylcarbonyl)amino]-1H-pyrazol-3-yl}piperidin-1-yl)azetidine-1-carboxylate] |
| < 1 µM | Cc1ccc(-n2nc(C3CCN(C4CN(C(=O)OCCF)C4)CC3)cc2NC(=O)c2cnn3cccnc23)cc1 [Example 241, 2-fluoroethyl 3-(4-{1-(4-methylphenyl)-5-[(pyrazolo[1,5-a]pyrimidin-3-ylcarbonyl)amino]-1H-pyrazol-3-yl}piperidin-1-yl)azetidine-1-carboxylate] |
| < 1 µM | COCCOC(=O)N1CC(N2CCC(c3cc(NC(=O)c4cnn5cccnc45)n(-c4ccc(C)cc4)n3)CC2)C1 [Example 242, 2-methoxyethyl 3-(4-{1-(4-methylphenyl)-5-[(pyrazolo[1,5-a]pyrimidin-3-ylcarbonyl)amino]-1H-pyrazol-3-yl}piperidin-1-yl)azetidine-1-carboxylate] |
| < 1 µM | CCS(=O)(=O)N1CC(N2CCC(c3cc(NC(=O)c4cnn5cccnc45)n(-c4ccc(C)cc4)n3)CC2)C1 [Example 243, N-[3-{1-[1-(ethylsulfonyl)azetidin-3-yl]piperidin-4-yl}-1-(4-methylphenyl)-1H-pyrazol-5-yl]pyrazolo[1,5-a]pyrimidine-3-carboxamide] |
| < 1 µM | Cc1ccc(-n2nc(C3CCN(C4CN(S(C)(=O)=O)C4)CC3)cc2NC(=O)c2cnn3cccnc23)cc1 [Example 244, N-[1-(4-methylphenyl)-3-{1-[1-(methylsulfonyl)azetidin-3-yl]piperidin-4-yl}-1H-pyrazol-5-yl]pyrazolo[1,5-a]pyrimidine-3-carboxamide] |
| < 1 µM | Cc1ccc(-n2nc(C3CCN(C4CN(S(=O)(=O)C5CC5)C4)CC3)cc2NC(=O)c2cnn3cccnc23)cc1 [Example 245, N-[3-{1-[1-(cyclopropylsulfonyl)azetidin-3-yl]piperidin-4-yl]-1-(4-methylphenyl)-1H-pyrazol-5-yl}pyrazolo[1,5-a]pyrimidine-3-carboxamide] |
| < 1 µM | Cc1ccc(-n2nc(C3CCN(C4CN(S(=O)(=O)C(C)C)C4)CC3)cc2NC(=O)c2cnn3cccnc23)cc1 [Example 246, N-[3-(1-{1-[(1-methylethyl)sulfonyl]azetidin-3-yl}piperidin-4-yl)-1-(4-methylphenyl)-1H-pyrazol-5-yl]pyrazolo[1,5-a]pyrimidine-3-carboxamide] |
